In patent US10959997B2, “Combined agent for cell therapy of corneal endothelial cell” (KYOTO PREFECTURAL PUBLIC UNIVERSITY CORPORATION, priority 2013, dated 2021):
Counter-ions that a name gives are not always drawn. Like-named read-outs stand apart in the source and are kept apart here.

How the values were obtained:
[1] = system: cultured monkey corneal endothelial cells; assay: Examination of number of adhering cells with CellTiter-Glo; format: cell-based, cynomolgus monkey
[2] = system: myosin light chain (MLC) phosphorylation; assay: Western blot of Rho-ROCK pathway activity (phospho myosin light chain); format: cell-based, cynomolgus monkey
Protocol: DMEM (Gibco-Invitrogen) to which Y-27632 was added such that the final concentration would be 10 μM and cultured monkey corneal endothelial cells were seeded. Over time, i.e., 0, 1, 3, and 24 hours thereafter, proteins extracted with RIPA buffer were subjected to electrophoresis with 7.5% polyacrylamide. DMEM (Gibco-Invitrogen) was used as a control. The separated protein was transcribed onto a PVDF membrane (PALL LIFE SCIENCE, catalog number: EH-2222). Blocking procedure was carried out by incubating a Tris buffered saline (10 mM Tris-HCl, pH 7.4, 100 mM NaCl) supplemented with 0.1% (vol/vol) polyethylene sorbitan monolaurate (Nacalai Tesque, catalog number: 28353-85) (TBS-T) and 5% non-fat dry milk (CELL SIGNALING, catalog number: 9999) and the blotted membrane for one hour. The membrane was then immersed in TBS-T supplemented with antibodies against Phospho Myosin Light Chain 2 (Thr18/Ser19) (CELL SIGNALING, catalog number: 3674), Phospho FAK (Y397) (D20B1) Rabbit mAb (CELL SIGNALING, catalog number: 8556), Phospho Paxillin (Tyr118) Antibody (CELL SIGNALING, catalog number: 2541), GAPDH (14C10) Rabbit mAb (CELL SIGNALING, catalog number: 2118) and diluted 1000-fold, and reacted for 1 hour at room temperature. […]

paxillin phosphorylation = assay: Western blot of adhesion-related molecules (phospho paxillin); format: cell-based, cynomolgus monkey
[3] = system: rabbit bullous keratopathy model; assay: Transplantation of cultured corneal endothelial cells in combination with inhibitor, injected into the anterior chamber; format: in vivo; conditions: for state of the anterior ocular section after transplantation (pictures): day 3, day 7, day 14
Protocol: In primary culture of rabbit corneal endothelial cells, a Descemet's membrane including an endothelial cell layer was detached from a corneal tissue and 0.5 ml of Accutase (catalog number: AT104, Innovative Cell Technologies) was used for each eye, and incubated at 37° C. by using a water bath. After 20 minutes, a culture medium was added and pipetting was performed. The sample was centrifuged at 1200 rpm for 3 minutes to remove the supernatant. A culture medium was then added to a precipitated corneal endothelial cell mass for admixing. The entire amount was seeded on a 12-well plate coated with FNC Coating Mix (catalog No.: 0407; Athena Enzyme Systems, Baltimore, Md., USA). DMEM (catalog No.: 12320; Gibco-Invitrogen), to which 10% FBS, 1% Penicillin-Streptomycin Mixed Solution (catalog number: 26252-94; Nacalai Tesque), and 2 ng/ml basic fibroblast growth factor, catalog number: 13256-029; bFGF; Invitrogen) were added, was used as a culture medium.
A medium was exchanged every other day. Subculture was performed when 50 to 80% confluence was reached. With respect to the subculturing method, cells were washed with Ca^2+Mg^2+-free PBS (PBS−; Nissui Pharmaceutical Co., Ltd., Tokyo, Japan), and 0.05% Trypsin-EDTA (catalog No.: 25300-054; Invitrogen) was added and incubated at 37° C. for 3 minutes. Cells were detached and collected from the plate. After the cells were centrifuged at 1500 rpm for 3 minutes, a culture medium was added to make a cell suspension. Cells were seeded on a plate coated with FNC Coating Mix at a density of 1:2-3.
Rabbit corneal endothelial cells were detached with a soft tapered needle (Inami, M-563S) to make a bullous keratopathy model. Subsequently, 5.0×10^5 cultured rabbit corneal endothelial cells were suspended in 200 μl of Dulbecco's Modified Eagle Medium (DMEM) with blebbistatin adjusted to a final concentration of 10 μM. The suspension was injected into the anterior chamber and the corneal surface was maintained in a face-down position for three hours. A group injected with 5.0×10^5 rabbit corneal endothelial cells suspended into 200 μl of Dulbecco's Modified Eagle Medium (DMEM) with Y-27632 adjusted to a final concentration of 100 μM in the anterior chamber, a group subjected only to scraping off of corneal endothelial cells, and a group injected with 5.0×10^5 rabbit corneal endothelial cells suspended in a 200 μl of Dulbecco's Modified Eagle Medium (DMEM) into the anterior chamber were used as comparison groups.
A rabbit bullous keratopathy model eye with the corneal endothelium scraped off was injected with 5.0×10^5 cultured rabbit corneal endothelial cells suspended in 200 μl of Dulbecco's Modified Eagle Medium (DMEM) with blebbistatin adjusted to a final concentration of 1 μM and 3 μM into the anterior chamber as in Example 3. […]

type II myosin = conditions: enantiomer of blebbistatin; cited from earlier work
[4] = system: skeletal muscle myosin II; conditions: cited from earlier work
non-muscle myosin II = conditions: cited from earlier work
actin polymerization = conditions: cited from earlier work
[5] = system: focal adhesion kinase (FAK) phosphorylation; format: cell-based, cynomolgus monkey

## Cc1ccc2c(c1)C(=O)[C@]1(O)CCN(c3ccccc3)C1=N2 [blebbistatin, (S)-(−)-Blebbistatin]
[1]; blebbistatin 100 μM, three hours from seeding, in comparison to the control (DMEM)
  number of adhering cells: significantly increased
[2]; addition of blebbistatin, stated in the discussion
  MLC phosphorylation activity: suppression of the MLC phosphorylation activity
Paxillin phosphorylation; blebbistatin 100 μM, 0, 1, 3 and 24 hours
  phosphorylation of paxillin: phosphorylated at an early stage
[3]; blebbistatin 1 μM, 3 μM, 10 μM versus Y-27632 100 μM
  concentration needed for therapy compared with Y-27632: therapy was possible at a lower concentration relative to Y-27632
[3]; blebbistatin 10 μM with 5.0×10^5 cells in 200 μl DMEM
  state of the anterior ocular section after transplantation (pictures): excellent as with Y-27632
Type II myosin
  effect as myosin II-specific inhibitor: has an effect

## Cc1ccc2c(c1)C(=O)C1(O)CCN(c3ccccc3)C1=N2 (single isomer, unassigned; (+)) [(+) form]
Type II myosin
  effect as myosin II-specific inhibitor: does not

## CC(=O)C(C)=NO [BDM, 2,3-butanedione monoxime]
[4]
  action on skeletal muscle myosin II: has action on skeletal muscle myosin II
non-muscle myosin II
  inhibiting effect on non-muscle myosin II: does not have an inhibiting effect
Actin polymerization
  effect on actin polymerization: inhibiting actin polymerization

## C[C@@H](N)[C@H]1CC[C@H](C(=O)Nc2ccncc2)CC1 [Y-27632, (R)-(+)-trans-(4-pyridyl)-4-(1-aminoethyl)-dihydrochloride cyclohexanecarboxamide monohydrate]
[1]
  number of adhering cells: significantly increased
[2]; Y-27632 10 μM, 0, 1, 3 and 24 hours
  MLC phosphorylation: suppresses
[5]
  phosphorylation of FAK: phosphorylated at an early stage
Paxillin phosphorylation
  phosphorylation of paxillin: phosphorylated at an early stage
[3]; Y-27632 100 μM with 5.0×10^5 cells in 200 μl DMEM
  state of the anterior ocular section after transplantation (pictures): excellent
[3]; animal models with bullous keratopathy
  concentration at which efficacy is exhibited: 10 to 100 µM
